Measurements reported in patent publication US20220204439A1, “LIPIDS AND LIPID NANOPARTICLE FORMULATIONS FOR DELIVERY OF NUCLEIC ACIDS” (Acuitas Therapeutics, Inc., priority 2015, published 2022).

Experiments:
[1] = tested on: luciferase expression in the liver; test: In vivo luciferase mRNA expression in mouse liver with lipid nanoparticle formulations; parameters: species or system C57BL/6 mice; conditions: tail vein injection, liver 4 hours after administration, FLuc mRNA; for Liver Luc @ 0.3 mg/kg (ng luc/g liver) / Liver Luc @ 1.0 mg/kg (ng luc/g liver): LNP 50% cationic lipid/10% DSPC/38.5% cholesterol/1.5% PEG-DMA
Procedure: (§1) Cationic lipid (MC3), DSPC, cholesterol and PEG-lipid were solubilized in ethanol at a molar ratio of 50:10:38.5:1.5. Lipid nanoparticles (LNP) were prepared at a total lipid to mRNA weight ratio of approximately 10:1 to 30:1. Briefly, the mRNA was diluted to 0.2 mg/mL in 10 to 50 mM citrate buffer, pH 4. Syringe pumps were used to mix the ethanolic lipid solution with the mRNA aqueous solution at a ratio of about 1:5 to 1:3 (vol/vol) with total flow rates above 15 ml/min. The ethanol was then removed and the external buffer replaced with PBS by dialysis. Finally, the lipid nanoparticles were filtered through a 0.2 μm pore sterile filter. Lipid nanoparticle particle size was 70-90 nm diameter as determined by quasi-elastic light scattering using a Nicomp 370 submicron particle sizer (Santa Barbara, Calif.).
Studies were performed in 6-8 week old female C57BL/6 mice (Charles River) according to guidelines established by an institutional animal care committee (ACC) and the Canadian Council on Animal Care (CCAC). Varying doses of mRNA-lipid nanoparticle were systemically administered by tail vein injection and animals euthanized at specific time points (1, 2, 4, 8 and 24 hrs) post-administration. Liver and spleen were collected in pre-weighted tubes, weights determined, immediately snap frozen in liquid nitrogen and stored at −80° C. until processing for analysis.
For liver, approximately 50 mg was dissected for analyses in a 2 mL FastPrep tubes (MP Biomedicals, Solon Ohio). ¼″ ceramic sphere (MP Biomedicals) was added to each tube and 500 μL of Glo Lysis Buffer—GLB (Promega, Madison Wis.) equilibrated to room temperature was added to liver tissue. Liver tissues were homogenized with the FastPrep24 instrument (MP Biomedicals) at 2×6.0 m/s for 15 seconds. Homogenate was incubated at room temperature for 5 minutes prior to a 1:4 dilution in GLB and assessed using SteadyGlo Luciferase assay system (Promega). Specifically, 50 μL of diluted tissue homogenate was reacted with 50 μL of SteadyGlo substrate, shaken for 10 seconds followed by 5 minute incubation and then quantitated using a CentroXS^3 LB 960 luminometer (Berthold Technologies, Germany). The amount of protein assayed was determined by using the BCA protein assay kit (Pierce, Rockford Ill.). Relative luminescence units (RLU) were then normalized to total ug protein assayed. To convert RLU to ng luciferase a standard curve was generated with QuantiLum Recombinant Luciferase (Promega). Based in the data provided in FIG. 1, the four-hour time point was chosen for efficacy evaluation of the lipid formulations (see Example 29).
The FLuc mRNA (L-6107) from Trilink Biotechnologies will express a luciferase protein, originally isolated from the firefly, Photinus pyralis. FLuc is commonly used in mammalian cell culture to measure both gene expression and cell viability. It emits bioluminescence in the presence of the substrate, luciferin. This capped and polyadenylated mRNA is fully substituted with 5-methylcytidine and pseudouridine.
The cationic lipids shown in Table 2 have previously been tested with nucleic acids. For comparative purposes, these lipids were also used to formulate lipid nanoparticles containing the FLuc mRNA (L-6107) using an in line mixing method, as described in example 28 and in PCT/US10/22614, which is hereby incorporated by reference in its entirety. […] Relative activity was determined by measuring luciferase expression in the liver 4 hours following administration via tail vein injection as described in example 28. The activity was compared at a dose of 0.3 and 1.0 mg mRNA/kg and expressed as ng luciferase/g liver measured 4 hours after administration, as described in Example 28. […]

[2] = pKa of formulated cationic lipids in lipid nanoparticles (TNS fluorescence assay); assay type: physicochemical; conditions: probe 2-(p-toluidino)-6-napthalene sulfonic acid (TNS), 1 µM final; formulated in LNP cationic lipid/DSPC/cholesterol/PEG-lipid 50/10/38.5/1.5 mol %; pH of half-maximal TNS fluorescence
Procedure: As described elsewhere, the pKa of formulated cationic lipids is correlated with the effectiveness of LNPs for delivery of nucleic acids (see Jayaraman et al, Angewandte Chemie, International Edition (2012), 51(34), 8529-8533; Semple et al, Nature Biotechnology 28, 172-176 (2010)). The preferred range of pKa is ˜5 to ˜7. […] Lipid nanoparticles comprising of cationic lipid/DSPC/cholesterol/PEG-lipid (50/10/38.5/1.5 mol %) in PBS at a concentration of 0.4 mM total lipid are prepared using the in-line process as described in Example 28. TNS was prepared as a 100 μM stock solution in distilled water. Vesicles were diluted to 24 μM lipid in 2 mL of buffered solutions containing, 10 mM HEPES, 10 mM MES, 10 mM ammonium acetate, 130 mM NaCl, where the pH ranged from 2.5 to 11. An aliquot of the TNS solution was added to give a final concentration of 1 μM and following vortex mixing fluorescence intensity was measured at room temperature in a SLM Aminco Series 2 Luminescence Spectrophotometer using excitation and emission wavelengths of 321 nm and 445 nm. A sigmoidal best fit analysis was applied to the fluorescence data and the pKa was measured as the pH giving rise to half-maximal fluorescence intensity (see FIG. 2).

[3] = Lipid nanoparticle particle size by quasi-elastic light scattering; assay type: physicochemical; conditions: MC3/DSPC/cholesterol/PEG-lipid 50:10:38.5:1.5 LNP with mRNA, Nicomp 370
Procedure: as §1

SMILES	pKa [2]	Lipid nanoparticle particle size (diameter) [3]	Liver Luc @ 0.3 mg/kg (ng luc/g liver) ([1]; 0.3 mg mRNA/kg)	Liver Luc @ 1.0 mg/kg (ng luc/g liver) ([1]; 1.0 mg mRNA/kg)	Liver Luc @ 0.3 mg/kg dose ([1]; 0.3 mg mRNA/kg, LNP 50% cationic lipid/10% DSPC/38.5% cholesterol/1.5% PEG-DMG)	Liver Luc @ 1.0 mg/kg dose ([1]; 1.0 mg mRNA/kg, LNP 50% cationic lipid/10% DSPC/38.5% cholesterol/1.5% PEG-DMG)
CCCCCCCC(=O)N(CCCN1CCCC1)C(CCCCCCCCC(=O)OCC(CCCC)CCCCCC)CCCCCCCCC(=O)OCC(CCCC)CCCCCC (centres unmarked) [Compound 14]	6.33	–	2851 ± 438 ng luc/g liver	15445 ± 3693 ng luc/g liver	–	–
CCCCCCCCC(=O)N(CCCN1CCCC1)C(CCCCCCCCC(=O)OCC(CCCC)CCCCCC)CCCCCCCCC(=O)OCC(CCCC)CCCCCC (centres unmarked) [Compound 15]	6.32	–	2708 ± 924 ng luc/g liver	15930 ± 4711 ng luc/g liver	–	–
CCCCC/C=C\C/C=C\CCCCCCCCC(CCCCCCCC/C=C\C/C=C\CCCCC)C(=O)N(CCCCCCCCC)CCCN(C)C [Compound 16]	6.37	–	231 ± 100 ng luc/g liver	1185 ± 838 ng luc/g liver	–	–
CCCCCCCCC(=O)N(CCCN(C)C)C(CCCCCCCCCOC(=O)C(CCCC)CCCCCC)CCCCCCCCCOC(=O)C(CCCC)CCCCCC (centres unmarked) [Compound 17]	6.29	–	837 ± 260 ng luc/g liver	6703 ± 689 ng luc/g liver	–	–
CCCCCC(CCCC)OC(=O)CCCCCCCC(=O)N(CCCN(C)C)C(CCCCCCCCC(=O)OC(CCCC)CCCC)CCCCCCCCC(=O)OC(CCCC)CCCC (centres unmarked) [Compound 24]	6.14	–	1120 ± 376 ng luc/g liver	7425 ± 2810 ng luc/g liver	–	–
CCCCCCC(CCCC)COC(=O)CCCCCCCCC(CCCCCCCCC(=O)OCC(CCCC)CCCCCC)N(CCCN(C)C)C(=O)C(CC)CCCCC (centres unmarked) [Compound 35]	5.97	–	1083 ± 350 ng luc/g liver	8554 ± 4587 ng luc/g liver	–	–
CCCCCCCCC(=O)N(CCCN(C)C)C(CCCCCCCCCOC(=O)C(CCCCCC)CCCCCCCC)CCCCCCCCCOC(=O)C(CCCCCC)CCCCCCCC (centres unmarked) [Compound 36]	6.13	–	541 ± 91 ng luc/g liver	4736 ± 980 ng luc/g liver	–	–

Continued, in another order:

pKa [2]	Lipid nanoparticle particle size (diameter) [3]	SMILES	Liver Luc @ 0.3 mg/kg (ng luc/g liver) ([1]; 0.3 mg mRNA/kg)	Liver Luc @ 1.0 mg/kg (ng luc/g liver) ([1]; 1.0 mg mRNA/kg)	Liver Luc @ 0.3 mg/kg dose ([1]; 0.3 mg mRNA/kg, LNP 50% cationic lipid/10% DSPC/38.5% cholesterol/1.5% PEG-DMG)	Liver Luc @ 1.0 mg/kg dose ([1]; 1.0 mg mRNA/kg, LNP 50% cationic lipid/10% DSPC/38.5% cholesterol/1.5% PEG-DMG)
6.45	–	CCCCCCCCC(=O)N(CCCN(C)C)C(CCCCCC(=O)OCC(CCCCCC)CCCCCCCC)CCCCCC(=O)OCC(CCCCCC)CCCCCCCC (centres unmarked) [Compound 38]	905 ± 443 ng luc/g liver	5353 ± 2082 ng luc/g liver	–	–
6.45	–	CCCCCCCCC(CCCCCC)COC(=O)CCCCCC(CCCCCC(=O)OCC(CCCCCC)CCCCCCCC)N(CCCN(C)C)C(=O)CCCCCCC (centres unmarked) [Compound 39]	779 ± 82 ng luc/g liver	5180 ± 2116 ng luc/g liver	–	–
6.57	–	CCCCCCCCC(CCCCCC)COC(=O)CCCCCC(CCCCCC(=O)OCC(CCCCCC)CCCCCCCC)N(CCCN(C)C)C(=O)CCCCCCCC(=O)OCC (centres unmarked) [Compound 40]	753 ± 156 ng luc/g liver	2203 ± 1555 ng luc/g liver	–	–
–	70-90 nm	CCCCC/C=C\C/C=C\CCCCCCCCC(CCCCCCCC/C=C\C/C=C\CCCCC)OC(=O)CCCN(C)C [MC3, reference compound]	603 ± 150 ng luc/g liver	2876 ± 622 ng luc/g liver	198 ± 126 ng luciferase/g liver	757 ± 528 ng luciferase/g liver
